Laboratory results published in the supplement of paper PMC8967900.

Key:
Experiment in all cases: selective drug sensitivity score (sDSS, relative to normal bone marrow) (sDSS (score)); higher = more potent and effective on the cell line relative to normal bone marrow cells
Conditions in all cases: 72 h
TMD5 = system: TMD5
NALM-16 = system: NALM-16
JURKAT = system: JURKAT
SUP-B15 = system: SUP-B15
ALL-SIL = system: ALL-SIL
REH = system: REH
MHH-CALL-2 = system: MHH-CALL-2
COG-LL-319h = system: COG-LL-319h
HPB-ALL = system: HPB-ALL
KASUMI-2 = system: KASUMI-2
MOLT-16 = system: MOLT-16
NALL-1 = system: NALL-1
MHH-CALL-3 = system: MHH-CALL-3
697 = system: 697
TANOUE = system: TANOUE
LC4-1 = system: LC4-1
380 = system: 380
DND-41 = system: DND-41
COG-LL-355h = system: COG-LL-355h
P30-OHKUBO = system: P30-OHKUBO
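Further: ALL cell lines in 384-well plates, five doses spanning 10,000-fold, each plate scaled between vehicle and 100 µmol/L benzalkonium chloride controls, sDSS an adapted area-under-curve metric.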

| Compound | selective drug sensitivity score (TMD5) | selective drug sensitivity score (NALM-16) | selective drug sensitivity score (JURKAT) | selective drug sensitivity score (SUP-B15) | selective drug sensitivity score (ALL-SIL) | selective drug sensitivity score (REH) | selective drug sensitivity score (MHH-CALL-2) | selective drug sensitivity score (COG-LL-319h) | selective drug sensitivity score (HPB-ALL) | selective drug sensitivity score (KASUMI-2) | selective drug sensitivity score (MOLT-16) | selective drug sensitivity score (NALL-1) | selective drug sensitivity score (MHH-CALL-3) | selective drug sensitivity score 697 | selective drug sensitivity score (TANOUE) | selective drug sensitivity score (LC4-1) | selective drug sensitivity score 380 | selective drug sensitivity score (DND-41) | selective drug sensitivity score (COG-LL-355h) | selective drug sensitivity score (P30-OHKUBO) |
| --- | --- | --- | --- | --- | --- | --- | --- | --- | --- | --- | --- | --- | --- | --- | --- | --- | --- | --- | --- | --- |
| CC(=O)c1cc2c(o1)C(=O)c1ccccc1C2=O [Napabucasin] (top concentration 20000 nM) | -1.28 | -11.8 | 0.52 | 1.22 | 2.22 | -1.58 | 3.72 | -0.18 | -0.98 | -3.38 | 0.12 | -7.38 | -3.28 | -0.88 | -4.88 | -0.38 | -2.08 | -0.18 | -0.18 | 0.42 |
| CC1(C)CCC(c2ccc(Cl)cc2)=C(CN2CCN(c3ccc(C(=O)NS(=O)(=O)c4ccc(N[C@H](CCN5CCOCC5)CSc5ccccc5)c(S(=O)(=O)C(F)(F)F)c4)cc3)CC2)C1 [Navitoclax] (top concentration 10000 nM) | 16.9 | 19.2 | 9.02 | 27.5 | 20 | 4.92 | 21.1 | 22.1 | 17.8 | 24.8 | 12.2 | 22.9 | 29 | 13 | -8.58 | 22.2 | 26.1 | 15.1 | 28.9 | 16.8 |
| CC(=O)c1c(C)c2cnc(Nc3ccc(N4CCNCC4)cn3)nc2n(C2CCCC2)c1=O [Palbociclib] (top concentration 10000 nM) | -5.22 | 1.98 | 1.58 | 2.38 | -2.12 | 3.08 | 3.68 | 0.38 | 2.78 | 0.88 | 8.58 | -1.72 | 5.38 | 14.3 | -6.12 | 4.38 | -0.12 | 2.48 | 2.88 | 9.58 |
| COc1ccc(COc2cc3oc(=O)c4cc(C(C)O)ccc4c3cc2OC)cc1 (stereo not given) [Palomid-529] (top concentration 10000 nM) | -0.24 | -0.24 | 5.16 | 5.26 | -0.24 | 6.66 | 1.06 | 17.2 | 0.76 | -0.24 | 4.36 | -0.04 | -0.24 | 0.06 | 0.36 | 12.6 | 5.86 | -0.24 | -0.24 | -0.24 |
| FC(F)(F)c1ccc(CNc2ccc(Cc3c[nH]c4ncc(Cl)cc34)cn2)cn1 [Pexidartinib] (top concentration 10000 nM) | -2.22 | -1.22 | 1.48 | -0.22 | -0.52 | 0.38 | -0.92 | -2.22 | -1.92 | -2.22 | -0.72 | -1.92 | -2.22 | 3.18 | -2.22 | 1.98 | -2.22 | -2.12 | -1.92 | 4.48 |
| CO[C@H](C(=O)[C@@H](O)[C@@H](C)O)[C@@H]1Cc2cc3cc(O[C@H]4C[C@@H](O[C@H]5C[C@@H](O)[C@H](O)[C@@H](C)O5)[C@@H](O)[C@@H](C)O4)c(C)c(O)c3c(O)c2C(=O)[C@H]1O[C@H]1C[C@@H](O[C@H]2C[C@@H](O[C@H]3C[C@](C)(O)[C@H](O)[C@@H](C)O3)[C@H](O)[C@@H](C)O2)[C@H](O)[C@@H](C)O1 [Plicamycin] (top concentration 10000 nM) | -13.8 | 2.74 | -11.2 | -15.6 | -1.46 | -13.4 | -6.26 | 7.54 | 7.44 | -17.2 | -5.06 | -17 | 5.34 | -17.5 | -14.4 | -16.7 | 7.14 | 0.44 | -15.4 | -16.3 |
| Cn1cc(CNCC2CCN(c3ncc(C(=O)NO)cn3)CC2)c2ccccc21 [Quisinostat] (top concentration 1000 nM) | 5.08 | -1.32 | 1.78 | 10.1 | 5.68 | -1.12 | 8.28 | 12.3 | 6.88 | 12.4 | 6.28 | -0.72 | 17 | 8.68 | -7.62 | 7.38 | 6.68 | 2.98 | 6.38 | 7.18 |
| CC(C)(C)Cn1c(N)nc2ccc(-c3[nH]c(C(C)(C)C)nc3-c3ccc(F)cc3)nc21 [Ralimetinib] (top concentration 10000 nM) | -0.74 | -0.84 | 1.76 | 7.36 | 3.36 | 2.36 | 1.46 | 4.06 | 3.66 | 1.56 | 12.6 | -0.84 | -0.84 | 5.66 | -0.44 | 4.76 | -0.84 | 5.36 | 7.86 | 4.66 |
| O=C(CCCCCCNC(=O)c1cnc(N(c2ccccc2)c2ccccc2)nc1)NO [Rocilinostat] (top concentration 10000 nM) | 0.04 | 3.34 | 2.74 | 5.64 | 9.14 | 6.04 | 11.2 | 8.24 | 5.54 | 10.2 | 6.94 | -0.66 | 14.5 | 5.84 | -0.26 | 8.24 | 8.54 | 3.54 | 4.84 | 5.04 |
| CN1CCC(CNc2ccc3ncc(-c4cccc(OC(F)(F)F)c4)n3n2)CC1 [SGI-1776] (top concentration 10000 nM) | -0.98 | -1.38 | -3.28 | -0.88 | -1.48 | -2.78 | 1.22 | -1.28 | -4.08 | 0.62 | -3.28 | -2.18 | -3.98 | -0.68 | -8.18 | -1.08 | -2.38 | -1.18 | 1.72 | 0.12 |
| O=C(/C=C\n1cnc(-c2cc(C(F)(F)F)cc(C(F)(F)F)c2)n1)NNc1cnccn1 [Selinexor] (top concentration 10000 nM) | 0.38 | 0.48 | 12.8 | 16.3 | 9.88 | 10.3 | 7.48 | 9.68 | 3.78 | 16.7 | 13.9 | 2.98 | 24.5 | 12.4 | -7.02 | 7.78 | 18.1 | 14.6 | 11.9 | 9.28 |
| Cn1cnc2c(F)c(Nc3ccc(Br)cc3Cl)c(C(=O)NOCCO)cc21 [Selumetinib] (top concentration 10000 nM) | 3.1 | -1.3 | -3.5 | 5.4 | -4.1 | -4.1 | 8.5 | -1.8 | -4.1 | 7.5 | -3.4 | -4.1 | 15.4 | -1 | -4.1 | 0.7 | 9.6 | 0.4 | 4.7 | -2.1 |
| COCC[n+]1c2c(n(Cc3cnccn3)c1C)C(=O)c1ccccc1C2=O [Sepantronium_bromide] (top concentration 10000 nM) | 20.5 | 22.2 | 14.2 | 22.3 | -3.26 | 17.8 | 22.8 | 4.64 | 6.34 | 19.5 | 12.7 | 16.2 | 22.3 | 22.8 | 14.7 | 22.3 | 22 | -7.46 | 15.5 | 22.8 |
| O=C(O)c1ccc2c(c1)nc(Nc1cccc(Cl)c1)c1ccncc12 [Silmitasertib] (top concentration 10000 nM) | -2.2 | -1.4 | 3.2 | 3 | 6.2 | 4.8 | 6.6 | 15.8 | 1.9 | -1.4 | 4.8 | 2.2 | -1.4 | 3.5 | -0.3 | 3.9 | 7.7 | 3.6 | 6.3 | 1.8 |
| CO[C@H]1C[C@@H]2CC[C@@H](C)[C@@](O)(O2)C(=O)C(=O)N2CCCC[C@H]2C(=O)O[C@H]([C@H](C)C[C@@H]2CC[C@@H](O)[C@H](OC)C2)CC(=O)[C@H](C)/C=C(\C)[C@@H](O)[C@@H](OC)C(=O)[C@H](C)C[C@H](C)/C=C/C=C/C=C/1C [Sirolimus] (top concentration 100 nM) | -3.56 | -2.26 | -1.96 | 5.04 | -0.86 | 0.54 | 0.84 | 5.94 | -2.46 | 2.84 | 5.04 | -3.66 | 5.74 | 6.34 | -3.76 | 1.74 | 17.4 | -0.16 | -0.66 | 1.34 |
| COCCNCc1ccc(-c2cc3nccc(Oc4ccc(NC(=O)C5(C(=O)Nc6ccc(F)cc6)CC5)cc4F)c3s2)nc1 [Sitravatinib] (top concentration 2500 nM) | 11 | 2.78 | 0.38 | 8.68 | 15.9 | 2.88 | 6.78 | -0.32 | -0.42 | -0.42 | -0.42 | 9.38 | -0.42 | 1.58 | -0.42 | 1.28 | 2.18 | 0.98 | 2.58 | 5.78 |
